For this test, the system named is CD2F1 mice, L1210 leukemia ip, survival T/C. Briefly: NCI In Vivo Anticancer Drug Screen. Data for tumor model L1210 Leukemia (intraperitoneal) in CD2F1 (CDF1) mice. Conditions: higher = longer survival. In outline:
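Activity against a transplanted murine tumor was judged by comparing the compound group with a vehicle group. The outcome in the treated animals was divided by that in the controls.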

Setting [1] is: endpoint: mean survival time, dose: 100.0 mg/kg/injection, schedule: Q04DX003 (ip), vehicle: saline with Tween-80.
Setting [2] is: endpoint: mean survival time, dose: 100.0 mg/kg/injection, schedule: Q01DX009 (ip), vehicle: saline with Tween-80.
Where [3] appears, read: endpoint: mean survival time, dose: 200.0 mg/kg/injection, schedule: Q01DX009 (ip), vehicle: saline with Tween-80.
Where [4] appears, read: endpoint: mean survival time, dose: 400.0 mg/kg/injection, schedule: Q01DX009 (ip), vehicle: saline with Tween-80.
Where [5] appears, read: endpoint: mean survival time, dose: 25.0 mg/kg/injection, schedule: Q04DX003 (ip), vehicle: saline.
The mark [6] stands for this setting: endpoint: mean survival time, dose: 50.0 mg/kg/injection, schedule: Q01DX009 (ip), vehicle: saline with Tween-80.

Each structure is given as a SMILES string. Several values for one entry are separate records, joined by “and”; a condition that tells them apart may be missing. Equal entries are not always repeated. Inconclusive results and toxic doses are left out.

On to `CS(=O)(=O)CS(=O)(=O)OCCCl`, for which the T/C is 116 % of control and 121 % of control (endpoint: median survival time, dose: 6.25 mg/kg/injection, schedule: Q01DX009 (ip), vehicle: saline with Tween-80); 168 % of control (endpoint: median survival time, dose: 12.5 mg/kg/injection, schedule: Q01DX009 (ip), vehicle: saline with Tween-80); 207 % of control and 228 % of control (endpoint: median survival time, dose: 25.0 mg/kg/injection, schedule: Q01DX009 (ip), vehicle: saline with Tween-80); 197 % of control (endpoint: median survival time, dose: 25.0 mg/kg/injection, schedule: Q01DX009 (ip), vehicle: saline); 370 % of control and 722 % of control (endpoint: median survival time, dose: 50.0 mg/kg/injection, schedule: Q01DX009 (ip), vehicle: saline with Tween-80); 352 % of control (endpoint: median survival time, dose: 50.0 mg/kg/injection, schedule: Q01DX009 (ip), vehicle: saline). In addition, the T/C (endpoint: median survival time, dose: 100.0 mg/kg/injection, schedule: Q01DX009 (ip), vehicle: saline with Tween-80) was 370 % of control and the T/C (endpoint: median survival time, dose: 100.0 mg/kg/injection, schedule: Q01DX009 (ip), vehicle: saline) was 352 % of control.
As for `COC1=C2C[C@@H](C)C[C@@H](OC)[C@@H](O)[C@H](C)/C=C(\C)[C@@H](OC(N)=O)[C@H](OC)/C=C\C=C(/C)C(=O)NC(=CC1=O)C2=O`, the T/C was 102 % of control (endpoint: mean survival time, dose: 0.12 mg/kg/injection, schedule: Q01DX009 (ip), vehicle: saline with Tween-80); 102 % of control (endpoint: mean survival time, dose: 0.25 mg/kg/injection, schedule: Q01DX009 (ip), vehicle: saline with Tween-80); 98 % of control (endpoint: mean survival time, dose: 0.5 mg/kg/injection, schedule: Q01DX009 (ip), vehicle: saline with Tween-80); 101 % of control (endpoint: mean survival time, dose: 1.0 mg/kg/injection, schedule: Q01DX009 (ip), vehicle: saline with Tween-80); 112 % of control (endpoint: mean survival time, dose: 2.0 mg/kg/injection, schedule: Q01DX009 (ip), vehicle: saline with Tween-80); 111 % of control (endpoint: mean survival time, dose: 4.0 mg/kg/injection, schedule: Q01DX009 (ip), vehicle: saline with Tween-80). In addition, the T/C is, setting by setting: (endpoint: mean survival time, dose: 5.0 mg/kg/injection, schedule: Q01DX001 (ip), vehicle: saline) 104 % of control; (endpoint: mean survival time, dose: 10.0 mg/kg/injection, schedule: Q01DX001 (ip), vehicle: saline) 107 % of control.
For the molecule `CC12CCC(C1)C(C)(C)C2(O)c1ccccc1` (stereo unspecified), the T/C under setting [1] was 92 % of control.
Regarding `O=C(O)C1C2CCC(C2)C1C(=O)O` (stereo unspecified), the T/C (endpoint: mean survival time, dose: 25.0 mg/kg/injection, schedule: Q04DX002 (ip), vehicle: saline with Tween-80) was 118 % of control; the T/C (endpoint: mean survival time, dose: 50.0 mg/kg/injection, schedule: Q04DX002 (ip), vehicle: saline with Tween-80) was 100 % of control; the T/C (endpoint: mean survival time, dose: 100.0 mg/kg/injection, schedule: Q01DX001 (ip), vehicle: Klucel (hydroxypropylcellulose) (HPC)) was 108 % of control; the T/C (endpoint: mean survival time, dose: 100.0 mg/kg/injection, schedule: Q04DX002 (ip), vehicle: saline with Tween-80) was 89 % of control; the T/C under setting [1] was 105 % of control; the T/C (endpoint: mean survival time, dose: 200.0 mg/kg/injection, schedule: Q01DX001 (ip), vehicle: Klucel (hydroxypropylcellulose) (HPC)) is 98 % of control. For the same molecule, the T/C is 93 % of control (endpoint: mean survival time, dose: 200.0 mg/kg/injection, schedule: Q04DX002 (ip), vehicle: saline with Tween-80); 102 % of control (endpoint: mean survival time, dose: 200.0 mg/kg/injection, schedule: Q04DX003 (ip), vehicle: saline with Tween-80); 96 % of control (endpoint: mean survival time, dose: 400.0 mg/kg/injection, schedule: Q01DX001 (ip), vehicle: Klucel (hydroxypropylcellulose) (HPC)).
`CCOC(=O)C(C#N)N=Nc1ccccc1` (stereo unspecified): the T/C was 95 % of control under setting [2], 95 % of control under setting [3] and 95 % of control under setting [4].
`C[n+]1ccccc1/C=N/O`: the T/C under setting [5] is 96 % of control; the T/C (endpoint: mean survival time, dose: 50.0 mg/kg/injection, schedule: Q04DX003 (ip), vehicle: saline) is 94 % of control; the T/C (endpoint: mean survival time, dose: 100.0 mg/kg/injection, schedule: Q04DX003 (ip), vehicle: saline) is 93 % of control and 97 % of control.
As to `N#CC1CCCC[N-]1.[NH-]CC[N-]CC[NH-].[Pt+4]` (stereo unspecified), the T/C runs as follows: (endpoint: mean survival time, dose: 12.5 mg/kg/injection, schedule: Q01DX009 (ip), vehicle: water) 93 % of control; (endpoint: mean survival time, dose: 25.0 mg/kg/injection, schedule: Q01DX009 (ip), vehicle: water) 95 % of control; (endpoint: mean survival time, dose: 50.0 mg/kg/injection, schedule: Q01DX009 (ip), vehicle: water) 97 % of control; (endpoint: mean survival time, dose: 100.0 mg/kg/injection, schedule: Q01DX009 (ip), vehicle: water) 88 % of control.
Consider `CCCC(=O)Nc1ccn(C2OC(CO)C(O)C2O)c(=O)n1` (stereo unspecified), for which the T/C under setting [6] was 98 % of control; the T/C (endpoint: mean survival time, dose: 50.0 mg/kg/injection, schedule: Q04DX002 (ip), vehicle: saline) was 100 % of control; the T/C under setting [2] is 102 % of control; the T/C (endpoint: mean survival time, dose: 100.0 mg/kg/injection, schedule: Q04DX002 (ip), vehicle: saline) was 97 % of control; the T/C under setting [3] was 102 % of control; the T/C (endpoint: mean survival time, dose: 200.0 mg/kg/injection, schedule: Q04DX002 (ip), vehicle: saline) was 97 % of control. Further, the T/C under setting [4] was 104 % of control; the T/C (endpoint: mean survival time, dose: 400.0 mg/kg/injection, schedule: Q04DX002 (ip), vehicle: saline) was 97 % of control; the T/C (endpoint: mean survival time, dose: 600.0 mg/kg/injection, schedule: Q04DX002 (ip), vehicle: saline) is 97 % of control.
As to `C#CC1(c2ccccc2)OCCO1`, the T/C by setting is: (endpoint: mean survival time, dose: 12.5 mg/kg/injection, schedule: Q01DX009 (ip), vehicle: saline with Tween-80) 97 % of control; (endpoint: mean survival time, dose: 25.0 mg/kg/injection, schedule: Q01DX009 (ip), vehicle: saline with Tween-80) 97 % of control; under setting [6], 94 % of control.
For the molecule `O=C1C=CC(=O)N1c1ccc(Cl)cc1`, the T/C reads like this: (endpoint: mean survival time, dose: 6.25 mg/kg/injection, schedule: Q01DX001 (ip), vehicle: Klucel (hydroxypropylcellulose) (HPC)) 100 % of control; (endpoint: mean survival time, dose: 6.25 mg/kg/injection, schedule: Q01DX009 (ip), vehicle: Klucel (hydroxypropylcellulose) (HPC)) 110 % of control; (endpoint: mean survival time, dose: 6.25 mg/kg/injection, schedule: Q04DX003 (ip), vehicle: Klucel (hydroxypropylcellulose) (HPC)) 107 % of control; (endpoint: mean survival time, dose: 12.5 mg/kg/injection, schedule: Q01DX001 (ip), vehicle: Klucel (hydroxypropylcellulose) (HPC)) 103 % of control; (endpoint: mean survival time, dose: 12.5 mg/kg/injection, schedule: Q01DX009 (ip), vehicle: Klucel (hydroxypropylcellulose) (HPC)) 101 % of control; (endpoint: mean survival time, dose: 12.5 mg/kg/injection, schedule: Q04DX003 (ip), vehicle: Klucel (hydroxypropylcellulose) (HPC)) 104 % of control. Further, for the setting “endpoint: mean survival time, dose: 25.0 mg/kg/injection, schedule: Q01DX009 (ip), vehicle: Klucel (hydroxypropylcellulose) (HPC)”, the T/C was 96 % of control.
In the case of `Cc1ccc(-c2nc3ncnc(N)c3[nH]2)cc1[N+](=O)[O-]`, the T/C is, setting by setting: (endpoint: mean survival time, dose: 37.5 mg/kg/injection, schedule: Q01DX001 (ip), vehicle: saline with Tween-80) 101 % of control; (endpoint: mean survival time, dose: 75.0 mg/kg/injection, schedule: Q01DX001 (ip), vehicle: saline with Tween-80) 90 % of control; (endpoint: mean survival time, dose: 150.0 mg/kg/injection, schedule: Q01DX001 (ip), vehicle: saline with Tween-80) 88 % of control.
Regarding `O=C(O)c1cc(-c2ccc(Cl)c(Cl)c2)nc2c(Cl)cc(Cl)cc12`, the T/C is 100 % of control (endpoint: mean survival time, dose: 100.0 mg/kg/injection, schedule: Q01DX001 (ip), vehicle: saline); 100 % of control (endpoint: mean survival time, dose: 200.0 mg/kg/injection, schedule: Q01DX001 (ip), vehicle: saline); 97 % of control (endpoint: mean survival time, dose: 400.0 mg/kg/injection, schedule: Q01DX001 (ip), vehicle: saline).
As to `CS(=O)(=O)C(Br)S(C)(=O)=O`, the T/C (endpoint: mean survival time, dose: 3.13 mg/kg/injection, schedule: Q01DX009 (ip), vehicle: saline) is 102 % of control; the T/C (endpoint: mean survival time, dose: 6.25 mg/kg/injection, schedule: Q01DX009 (ip), vehicle: saline) was 102 % of control; the T/C (endpoint: mean survival time, dose: 6.25 mg/kg/injection, schedule: Q04DX003 (ip), vehicle: saline) was 96 % of control; the T/C (endpoint: mean survival time, dose: 12.5 mg/kg/injection, schedule: Q01DX009 (ip), vehicle: saline) is 101 % of control; the T/C (endpoint: mean survival time, dose: 12.5 mg/kg/injection, schedule: Q04DX003 (ip), vehicle: saline) is 93 % of control; the T/C under setting [5] is 109 % of control.
On to `CN1CC(CO)C(O)C2c3cccc4[nH]cc(c34)CC21` (stereo unspecified), for which the T/C is 100 % of control (endpoint: median survival time, dose: 25.0 mg/kg/injection, schedule: Q04DX003 (ip), vehicle: saline with Tween-80); 100 % of control (endpoint: median survival time, dose: 50.0 mg/kg/injection, schedule: Q04DX003 (ip), vehicle: saline with Tween-80); 100 % of control (endpoint: median survival time, dose: 100.0 mg/kg/injection, schedule: Q04DX003 (ip), vehicle: saline with Tween-80); 100 % of control (endpoint: median survival time, dose: 200.0 mg/kg/injection, schedule: Q04DX003 (ip), vehicle: saline with Tween-80).

(Values after PubChem BioAssay AID256 (DTP/NCI, 2004).)
